Measurements as given in patent publication US20250179028A1, “ACRYLAMIDE COMPOUNDS” (NRG THERAPEUTICS LTD, priority 2022, published 2025).
Marks after values point to notes of the source that are not given here.

How the values were obtained:
mPTP [1] = assay: mPTP mitochondria membrane potential flow cytometry assay in stimulated human platelets; assay type: cell-based
Method: The mPTP cell based assay was performed using a mitochondria membrane potential flow cytometry assay in stimulated human platelets. Simulation of platelets results in the rapid influx of Ca^2+ across the platelet membrane. The Ca^2+ is then sequestered by mitochondria until the threshold for mPTP opening is reached, at which point the pore opens and the mitochondrial membrane potential is dissipated. Changes in mitochondria membrane potential due to mPTP opening can be quantified in live platelets using standard mitochondrial membrane potential dyes e.g. 3,3′-dihexyloxacarbocyanine Iodide; DiOC6(3), enabling pharmacological characterisation of mPTP inhibitors.
Fresh human blood (20 ml) was collected from consenting donors into 3.2% sodium citrate. Platelets were isolated by centrifugation at 200 g for 20 min at room temperature, then the platelet rich plasma layer transferred to a fresh tube. Prostaglandin 12 is added to the platelets at a final concentration of 20 ng/ml. After centrifugation at 640 g for 10 min, the platelet rich pellet was resuspended in 4 ml HEPES assay buffer (137 mM NaCl, 2.7 mM KCl, 11.9 mM NaHCO3, 0.42 mM NaH2PO4, 1 mM MgCl2, 5.5 mM glucose, 0.1% bovine serum albumin, 10 mM HEPES adjusted to pH 7.4) and stored on ice.
Test compounds were prepared from 10 mM stocks in DMSO and serially diluted in assay buffer containing 0.4% DMSO and 25 μl transferred into a 96 well plate. Platelets were loaded with the mitochondrial membrane potential dye DiOC6(3) (3,3′-dihexyloxacarbocyanine Iodide; Invitrogen) at 200 nM for 30 min, then 50 μl plated into each well of the 96 well plate containing diluted test compound and incubated for 15 min. Control wells included DMSO (0.1% final concentration) only or 5 μM cyclosporin A. Platelets were then stimulation with the addition of assay buffer (25 μl) containing CaCl2, alpha thrombin and Convulxin to achieve a final concentrations of 2 mM, 0.017 U/ml and 0.167 μg/ml respectively and incubated for 14 min. The reaction was stopped by the addition of 25 μl 15 mM EDTA in assay buffer. The mitochondrial membrane potential across the population of platelets in each well was then quantified by flow cytometry using a Guava easyCyte 5 Benchtop Flow Cytometer with 3000 events per well. The percentage of platelets with a depolarised mitochondrial membrane potential was calculated for each well. A pIC50 for each compound was then calculated using a standard four parameter curve fit model (GraphPad Prism).

mPTP [2] = assay: mPTP activity assay in isolated rat brain mitochondria; assay type: biochemical; conditions: isolated rat brain mitochondria
Method: mPTP activity was measured in brain mitochondria freshly isolated from female Sprague Dawley (250 to 300 gram) rats. Anaesthetised rats were perfused in-situ with ˜40 ml cold Dulbecco's Phosphate Buffered Saline (DPBS), then brains dissected and transferred into 30 ml Isolation Buffer (225 mM mannitol, 75 mM sucrose, 1 mM EGTA, adjusted to pH 7.4 with 1 M NaOH). The brain was minced using tweezers and a scalpel into ˜5 mm pieces then transferred into a 50 ml Potterton Dounce homogenization tube on ice containing 10 ml ice-cold isolation buffer (as above with addition of Complete Protease inhibitor; 1 tablet per 50 ml buffer).
Homogenisation was carried out using a […] pestle at 1800 rpm. The slurry was centrifuged at 2000 g for 10 min at 4° C., then the supernatant centrifuged at 12,000 g for 9 min. The pellet was resuspended with a dounce homogeniser in isolation buffer as above but with the addition of 0.02% digitonin, centrifuged at 12,000 g for 11 min and finally resuspended in 5 ml modified isolation buffer (as above but with EGTA reduced to 0.1 mM).
Test compounds were prepared in 384 well polypropylene assay plates as described above for the liver mitochondria assay. A stock mitochondria/Fluo5N assay solution was prepared in 5.6 ml assay buffer (120 mM mannitol, 40 mM MOPS, 5 mM KH2PO4, 60 mM KCl, 10 mM pyruvate, 2 mM malate, 2 mM MgCl2, 20 μM ADP, 1.26 μM oligomycin A, adjusted to pH 7.4) supplemented with Fluo5N pentapotassium salt (2 μM) and 1 ml mitochondria suspension, then transferred (15 μl) into the assay plate containing test compounds and incubated for 10 min at RT. Assay plates were then transferred to a FLIPR Tetra plate reader (Molecular Devices). Dye fluorescence was then measured every 3 sec for a total of 10 min. After 12 sec, a 2.5 μl bolus of Ca2+ (75 μM) was added from a source plate containing 675 μM CaCl2) in FLIPR assay buffer. IC50 values for test compounds were calculated using the fluorescence value collected at the 10 min timepoint with % inhibition calculated using the DMSO control and cyclosporin A values at […].

SMILES | mPTP Human Platelets pIC50 (mPTP [1]) | mPTP Rat brain pIC50 (mPTP [2]) | mPTP Rat brain pIC50 (mPTP [2]; average value from a larger number of experiments)
Cc1c(F)cccc1NC(=O)/C=C/c1ccc2cn[nH]c2c1 [Comparative Example 1, (E)-N-(2-methyl-3-fluorophenyl)-3-(1H-indazol-6-yl)acrylamide, reference compound] | 6.9 | 7.6 | 7.5***
Cc1c(F)cccc1NC(=O)/C=C/c1ccc2oc(=O)[nH]c2c1 [Example 6, (E)-N-(3-fluoro-2-methylphenyl)-3-(2-oxo-2,3-dihydrobenzo[d]oxazol-5-yl)acrylamide] | 7.0 | – | –
Cc1c(F)cccc1NC(=O)/C=C/c1ccc2c(c1)[nH]c(=O)n2C [Example 7, (E)-N-(3-fluoro-2-methylphenyl)-3-(1-methyl-2-oxo-2,3-dihydro-1H-benzo[d]imidazol-5-yl)acrylamide] | 7.2 | 6.9 | –
Cc1c(F)cccc1NC(=O)/C=C/c1ccc2c(c1)NC(=O)C2 [Example 10, (E)-N-(3-fluoro-2-methylphenyl)-3-(2-oxoindolin-6-yl)acrylamide] | 7.0 | 6.5 | –
Cc1ccc(F)c(C)c1NC(=O)/C=C/c1ccc2c(c1)[nH]c(=O)n2C [Example 30, (E)-N-(3-fluoro-2,6-dimethylphenyl)-3-(1-methyl-2-oxo-2,3-dihydro-1H-benzo[d]imidazol-5-yl)acrylamide] | – | 7.6 | –
CO[C@H]1Cc2ccccc2[C@@H]1NC(=O)/C=C/c1ccc2c(C)n[nH]c2c1 [Example 54, (E)-N-((1S,2S)-2-methoxy-2,3-dihydro-1H-inden-1-yl)-3-(3-methyl-1H-indazol-6-yl)acrylamide] | – | 7.7 | –
CO[C@H]1Cc2ccccc2[C@@H]1NC(=O)/C=C/c1ccc2c(F)n[nH]c2c1 [Example 73, (E)-3-(3-fluoro-1H-indazol-6-yl)-N-((1S,2S)-2-methoxy-2,3-dihydro-1H-Inden-1-yl)acrylamide] | – | 7.7 | –
